Measurements published in ChEMBL document CHEMBL1201862, “PubChem BioAssay data set” (2004).
Blank lines part the entries; values can stand above or below the compound they belong to. The source made the active and inactive calls.

Experiments:
[1] = inhibitors of intracellular T. cruzi replication, confirmation, NIH3T3 host cells, beta-gal luminescence (AID 2044); assay type: functional, cell-based;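 also: intracellular parasites grown in NIH/3T3 mouse fibroblasts as host cells; luminescent beta-galactosidase reporter signal from transgenic T. cruzi replicating inside host cells; inhibitors lower the luminescence signal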
[2] = cytotoxicity toward NIH3T3 fibroblasts, dose response, counter-screen, cell-based, ATP luminescence, mouse fibroblasts (AID 2010); assay type: functional;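 also: cells exposed to compound for about 90 hours before reading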
Cytochrome P450 2D6 = Cytochrome P450 2D6 (Homo sapiens, UniProt P10635);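 also: CYP2D6 member of a cytochrome P450 panel assay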
[3] = biological target: Luciferin 4-monooxygenase (Photinus pyralis, UniProt P08659); test: firefly luciferase enzyme inhibitors, dose response, biochemical, luminescence (AID 1891)
[4] = Luminescence Cell-Based Dose Confirmation HTS to Identify Inhibitors of Platelet Dense Granule Release. [Related pubchem assays: 1663 (Primary HTS), 1678 (Summary of Project)]; assay type: functional
Cytochrome P450 2C19 = Cytochrome P450 2C19 (Homo sapiens, UniProt P33261); test: Cytochrome panel assay with activity outcomes. Panel member name: p450-cyp2c19 Compounds with AC50 equal or less than 10 uM are considered active; assay type: functional
[5] = HEp-2 cell cytotoxicity, dose response, cytotoxicity control for RSV inhibitor project, HTS (AID 2410); assay type: functional; conditions: human respiratory syncytial virus
[6] = biological target: T1, Corticotropin-releasing factor receptor 2/Corticotropin-releasing factor-binding protein (Homo sapiens, UniProt P24387+Q13324); test: activators of CRF receptor 2 with binding protein – uHTS hits, confirmation (AID 602473); assay type: functional; conditions: read-out: EC50_Mean
T1 sequence (Q13324 whole entry): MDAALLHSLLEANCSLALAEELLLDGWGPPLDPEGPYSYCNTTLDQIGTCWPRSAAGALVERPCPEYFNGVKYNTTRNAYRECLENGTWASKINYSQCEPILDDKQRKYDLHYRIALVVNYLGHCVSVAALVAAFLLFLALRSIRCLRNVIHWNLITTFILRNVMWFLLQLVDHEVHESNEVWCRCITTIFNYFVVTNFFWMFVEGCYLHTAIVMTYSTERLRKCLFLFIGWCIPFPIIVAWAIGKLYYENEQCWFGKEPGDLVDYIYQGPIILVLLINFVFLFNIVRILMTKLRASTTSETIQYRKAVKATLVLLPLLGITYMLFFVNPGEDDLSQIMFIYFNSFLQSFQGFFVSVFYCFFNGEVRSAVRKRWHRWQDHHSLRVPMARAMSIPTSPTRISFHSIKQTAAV
T1 sequence (P24387 whole entry): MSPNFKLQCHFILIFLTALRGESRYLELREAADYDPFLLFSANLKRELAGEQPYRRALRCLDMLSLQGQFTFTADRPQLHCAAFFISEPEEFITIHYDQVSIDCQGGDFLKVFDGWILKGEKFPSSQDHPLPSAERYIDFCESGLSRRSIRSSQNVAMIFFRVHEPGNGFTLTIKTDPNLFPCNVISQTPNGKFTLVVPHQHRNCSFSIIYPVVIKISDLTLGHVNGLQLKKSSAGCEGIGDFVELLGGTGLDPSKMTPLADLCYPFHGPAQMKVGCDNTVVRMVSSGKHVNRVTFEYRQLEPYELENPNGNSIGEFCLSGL

[7] = test system: Streptococcus sp. 'group A'; test: growth inhibition of control SK(-) GAS strain, dose response, counter-screen for streptokinase expression inhibitor project, luminescence, kanamycin, BacTiterGlo, confirmation (AID 1900); assay type: functional, organism-based
Streptococcus = test: Group A Streptococcus viability loss, dose response, counter-screen for streptokinase expression inhibitor project, luminescence, BacTiterGlo (AID 1915); assay type: functional, organism-based;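 also: potency for reduction of bacterial viability or growth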

Luciferin 4-monooxygenase, sequence (P08659 whole entry): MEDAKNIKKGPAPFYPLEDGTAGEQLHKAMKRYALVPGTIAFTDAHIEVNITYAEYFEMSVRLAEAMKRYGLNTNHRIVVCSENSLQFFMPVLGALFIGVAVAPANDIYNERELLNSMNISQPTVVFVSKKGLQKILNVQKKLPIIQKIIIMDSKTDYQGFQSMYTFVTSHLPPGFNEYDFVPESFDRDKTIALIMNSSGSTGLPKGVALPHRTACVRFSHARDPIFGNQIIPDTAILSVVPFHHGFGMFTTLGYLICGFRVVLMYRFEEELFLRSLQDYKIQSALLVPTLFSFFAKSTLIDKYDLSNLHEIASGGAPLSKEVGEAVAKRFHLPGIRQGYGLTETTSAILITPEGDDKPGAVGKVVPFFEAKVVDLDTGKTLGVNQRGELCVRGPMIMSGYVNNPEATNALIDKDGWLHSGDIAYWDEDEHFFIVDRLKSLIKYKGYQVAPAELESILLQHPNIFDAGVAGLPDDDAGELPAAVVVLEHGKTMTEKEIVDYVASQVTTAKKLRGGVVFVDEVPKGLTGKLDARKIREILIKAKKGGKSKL
Cytochrome P450 2C19, sequence (P33261 whole entry): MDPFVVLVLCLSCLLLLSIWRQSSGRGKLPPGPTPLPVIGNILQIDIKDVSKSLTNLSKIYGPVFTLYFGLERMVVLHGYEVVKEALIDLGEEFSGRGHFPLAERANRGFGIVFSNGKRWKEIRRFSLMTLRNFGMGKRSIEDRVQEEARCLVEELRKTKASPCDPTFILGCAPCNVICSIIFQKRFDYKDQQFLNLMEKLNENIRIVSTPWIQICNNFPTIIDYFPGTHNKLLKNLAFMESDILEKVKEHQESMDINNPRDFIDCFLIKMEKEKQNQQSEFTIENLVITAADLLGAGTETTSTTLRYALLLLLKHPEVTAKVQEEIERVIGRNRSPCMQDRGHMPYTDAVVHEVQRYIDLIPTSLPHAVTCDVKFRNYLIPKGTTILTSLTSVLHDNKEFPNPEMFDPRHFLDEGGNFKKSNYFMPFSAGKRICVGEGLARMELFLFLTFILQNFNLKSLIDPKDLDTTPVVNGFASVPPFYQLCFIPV
Cytochrome P450 2D6, sequence (P10635 whole entry): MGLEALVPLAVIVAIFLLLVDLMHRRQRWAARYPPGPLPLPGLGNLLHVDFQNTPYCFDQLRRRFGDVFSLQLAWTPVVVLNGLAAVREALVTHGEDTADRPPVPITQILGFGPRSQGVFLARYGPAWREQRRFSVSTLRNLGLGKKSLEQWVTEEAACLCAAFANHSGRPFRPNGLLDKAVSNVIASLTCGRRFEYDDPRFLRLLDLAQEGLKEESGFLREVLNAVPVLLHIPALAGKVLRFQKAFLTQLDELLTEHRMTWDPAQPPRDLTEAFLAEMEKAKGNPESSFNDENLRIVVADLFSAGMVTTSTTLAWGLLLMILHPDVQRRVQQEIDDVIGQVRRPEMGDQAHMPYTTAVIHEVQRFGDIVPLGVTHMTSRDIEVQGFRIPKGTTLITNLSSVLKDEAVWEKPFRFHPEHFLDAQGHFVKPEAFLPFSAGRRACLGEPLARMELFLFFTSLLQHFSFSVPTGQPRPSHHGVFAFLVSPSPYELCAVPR

SMILES: Cc1nn(C)c(Cl)c1CN1CCCC(CCC(=O)NCc2ccccc2F)C1 (stereo not drawn)
EC50 [1]: 0.181 µM (active)
EC50 [2]: > 30 µM (not active)

SMILES: Cc1nc2c(C(=O)NCc3ccco3)cnn2c(C)c1Cc1ccc(F)cc1Cl
EC50 [1]: 2.17 µM (active)
EC50 [2]: > 30 µM (not active)

AC50 (Cytochrome P450 2D6): 14.1 µM (inconclusive)
SMILES: Cc1cc2cc3c(cc2nc1SCC(=O)Nc1c(C)cccc1C)CCC3

SMILES: CCOC(=O)c1cnc2c(C#N)c(C)nn2c1-c1ccccc1
EC50 [3]: > 112 µM (not active)
EC50 [4]: 54.1 µM (active)

SMILES: Cc1ccc(/C=C/C(=O)Nc2ccccc2C(N)=O)cc1
EC50 [3]: 3.26 µM (active)
EC50 [4]: 22.3 µM (active)

AC50 (Cytochrome P450 2C19; read-out: AC50): 0.316 µM (inconclusive)
SMILES: O=C1OCCC=C1[C@@H](O)CCc1ccccc1

SMILES: CC1CCCCN1S(=O)(=O)c1ccc(S(=O)(=O)N(Cc2ccccc2)Cc2ccco2)cc1 (stereo not drawn)
EC50 [1]: 1.09 µM (active)
EC50 [2]: > 60 µM (not active)

SMILES: COc1ccc(N(CC(=O)NCCC2=CCCCC2)S(=O)(=O)c2ccccc2)cc1OC
EC50 [1]: 3.35 µM (active)
EC50 [2]: > 60 µM (not active)

SMILES: Cc1ccc(-c2nc(SC(C)C(=O)N3CCOCC3)n[nH]2)cc1 (stereo not drawn)
EC50 [3]: > 112 µM (not active)
EC50 [4]: > 112 µM (not active)

SMILES: COc1ccc(-c2noc(CCCC(=O)NCC3CCCO3)n2)cc1 (stereo not drawn)
CC50 [5]: 30.3 µM (active)

SMILES: CCOc1ccc(C(=O)O/N=C(\N)c2ccccn2)cc1OCC
EC50 [3]: > 112 µM (not active)
EC50 [4]: > 112 µM (not active)

SMILES: Cc1ccc(C)c(OCC(O)CN2CCc3ccccc3C2)c1C (stereo not drawn)
CC50 [5]: 46.3 µM (active)

AC50 (Cytochrome P450 2C19; read-out: AC50): 7.08 µM (inconclusive)
SMILES: Cc1ccc(NC(=O)C(=O)NCc2ccc(/C=C(/C#N)C(=O)NCc3cccnc3)o2)cc1

AC50 (Cytochrome P450 2D6): 25.1 µM (inconclusive)
SMILES: CCc1ccc(C(C(=O)NCc2ccc(OC)cc2)N(CCOC)C(=O)Cc2cccs2)cc1 (stereo not drawn)

SMILES: Nc1nn(S(=O)(=O)c2ccccc2)cc1-c1cccc([N+](=O)[O-])c1
EC50 [1]: 1.83 µM (active)
EC50 [2]: > 60 µM (not active)

SMILES: O=C(CCCc1ccccn1)c1ccccc1
AC50 (Cytochrome P450 2C19; read-out: AC50): 2.51 µM (inconclusive)

SMILES: Cc1nn(C)cc1CNC(=O)C1CCC(=O)N(CC2CCCCC2)C1 (stereo not drawn)
EC50 [3]: > 112 µM (not active)
EC50 [4]: > 112 µM (not active)

SMILES: c1ccc(-c2cc3c(N4CCCC4)ncnc3s2)cc1
CC50 [5]: > 50 µM (active)

SMILES: O=C(c1ccc(Cl)cc1)C1CCCN(Cc2cnn(-c3ccccc3)c2)C1 (stereo not drawn)
EC50 [1]: 0.503 µM (active)
EC50 [2]: > 60 µM (inconclusive)

SMILES: Cn1c(=O)c2c(SCC(=O)N3CCCc4ccccc43)nc(CC(C)(C)C)nc2n(C)c1=O
CC50 [5]: > 50 µM (active)

SMILES: CCOc1ccccc1C1c2[nH]c3ccccc3c2C[C@H]2C(=O)N(C3CCN(Cc4ccccc4)CC3)CC(=O)N12 (stereo partly drawn)
EC50 [1]: 2.15 µM (active)
EC50 [2]: > 60 µM (not active)

AC50 (Cytochrome P450 2D6): 10 µM (inconclusive)
SMILES: O=C(c1cccc(F)c1)N1CCC2(CCCN(Cc3ccccc3)C2)CC1

SMILES: CCOC(=O)c1c(NC(=O)CN2C(=O)NC3(CCCCC3C)C2=O)sc(C)c1CC (stereo not drawn)
EC50 [1]: 2.37 µM (active)
EC50 [2]: > 60 µM (not active)

SMILES: CCN(CC)S(=O)(=O)c1ccc(NN=C2CCN(C)CC2)c([N+](=O)[O-])c1
EC50 [1]: 0.482 µM (active)
EC50 [2]: > 60 µM (not active)

EC50 [6]: 5.48 µM (active)
SMILES: COc1cc(OC)c(OC)cc1/C=C1/Cc2ccccc2C1=O

SMILES: COc1cccc(-c2cc(C(=O)Nc3ccc(N(C)C(C)=O)cc3)c3cc(Br)ccc3n2)c1
EC50 [1]: 1.83 µM (active)
EC50 [2]: > 60 µM (not active)

SMILES: CCOCCCN1C(=O)CN(C2CCC(C)CC2)C(=O)C1c1ccc(C)cc1 (stereo not drawn)
EC50 [3]: > 112 µM (not active)
EC50 [4]: > 112 µM (not active)

SMILES: Nc1ccn(-c2ccc(Cl)cc2)c(=O)c1
EC50 [3]: > 112 µM (not active)
EC50 [4]: > 112 µM (not active)

AC50 (Cytochrome P450 2C19; read-out: AC50): 20 µM (inconclusive)
AC50 (Cytochrome P450 2D6): 12.6 µM (inconclusive)
SMILES: O=C(Nc1cccc(F)c1)N1CCC2(CCNCC2)CC1

SMILES: COc1ccc(Cl)cc1Nc1nc(-c2sc(NC(=O)c3ccco3)nc2C)cs1
CC50 [5]: 35.4 µM (active)

SMILES: COC(=O)c1c(NC(=O)C2CC(=O)NN2Cc2ccccc2)sc(C)c1C (stereo not drawn)
EC50 [3]: > 112 µM (not active)
EC50 [4]: > 112 µM (not active)

AC50 (Cytochrome P450 2D6): 3.16 µM (inconclusive)
SMILES: N#Cc1c(-c2ccc3c(c2)OCO3)ccn2nc(-c3cccc(C(F)(F)F)c3)nc12

SMILES: CCN(CC)S(=O)(=O)c1ccc2c(c1)nc(CCC(=O)O)n2C
EC50 [3]: > 112 µM (not active)
EC50 [4]: > 112 µM (not active)

SMILES: CNc1ccc(Oc2nc([N+](=O)[O-])nn2C)cc1
EC50 [1]: 1.43 µM (active)
EC50 [2]: > 60 µM (not active)

SMILES: COC(=O)c1c(NC(=O)CN2C(=O)NC3(CCC(C(C)(C)C)CC3)C2=O)sc2c1CCCCC2 (stereo not drawn)
EC50 [1]: 3.11 µM (active)
EC50 [2]: > 60 µM (not active)

EC50 [6]: > 53 µM (inactive)
SMILES: O=C(Nc1ncc(Cc2ccc(Cl)cc2Cl)s1)c1ccc([N+](=O)[O-])cc1

SMILES: CN(C)CCOC(=O)C1(c2ccccc2)CCCC1
EC50 [3]: > 112 µM (not active)
EC50 [4]: > 112 µM (not active)

SMILES: c1ccc2c(N3CCCCCC3)nc(-c3ccncc3)nc2c1
CC50 [5]: 15.9 µM (active)

SMILES: CC(=O)OCCN1C(=O)c2cccc3cc([N+](=O)[O-])cc(c23)C1=O
EC50 [1]: 0.358 µM (active)
EC50 [2]: > 30 µM (not active)

AC50 (Cytochrome P450 2C19): inconclusive
SMILES: O=C(O)CC1(CC(=O)O)Nc2ccccc2SC1=O

SMILES: CSc1scc2c1-c1nc(SCC(=O)C(C)(C)C)ncc1CC2
CC50 [5]: 20.6 µM (active)

SMILES: CCc1ccc2nc(O)c(CN(Cc3ccccc3)C(=O)Nc3ccccc3OC)cc2c1
EC50 [1]: 1.93 µM (active)
EC50 [2]: > 60 µM (not active)

SMILES: COc1ccc(-n2nc3c(N4CCC(C(=O)N5CCCCCC5)CC4)nnc(C)c3c2C)cc1
EC50 [1]: 0.858 µM (active)
EC50 [2]: > 60 µM (not active)

AC50 (Cytochrome P450 2C19; read-out: AC50): 25.1 µM (inconclusive)
SMILES: COC(=O)[C@@]1(Cc2ccc(OC)cc2)[C@H]2c3cc(C(=O)N(C)C)n(C)c3C[C@H]2CN1C(=O)c1ccccc1

AC50 (Cytochrome P450 2D6): 44.7 µM (inconclusive)
SMILES: COC(=O)Cn1c(=N)n(CCN2CCCCC2)c2ccccc21

SMILES: Sc1ncnc2c1sc1nc(N3CCOCC3)c3c(c12)CCCC3
CC50 [5]: > 50 µM (active)

SMILES: COc1ccc(CN2CCNC(=O)C2CC(=O)NCC(C)(C)N2CCOCC2)cc1C (stereo not drawn)
EC50 [3]: > 112 µM (not active)
EC50 [4]: > 112 µM (not active)

EC50 [6]: 4.9 µM (active)
SMILES: CCOC(=O)/C=c1/s/c(=C/c2ccc3cc(OC)ccc3c2)c(=O)n1CC(=O)NCc1ccc2c(c1)OCO2

EC50 [6]: 5.44 µM (active)
SMILES: COc1cc(C)c(C)cc1S(=O)(=O)N1CCCc2ccccc21

AC50 (Cytochrome P450 2C19; read-out: AC50): 0.00562 µM (inconclusive)
SMILES: COc1cc(N2CCOCC2)ncn1

AC50 (Cytochrome P450 2C19; read-out: AC50): 15.8 µM (inconclusive)
AC50 (Cytochrome P450 2D6): 4.47 µM (inconclusive)
SMILES: Cc1cccc(OCC(=O)NNC(=O)CSc2ncc(C#N)c(N)n2)c1

SMILES: Nc1cccc2c1Cc1cc([N+](=O)[O-])ccc1-2
EC50 [6]: > 53 µM (inactive)

SMILES: Fc1ccc(/C=N/Nc2nccnc2Cl)cc1
EC50 [3]: 8.1 µM (active)
EC50 [4]: 1.65 µM (active)

EC50 [6]: 1.24 µM (active)
SMILES: Cc1c(/C=N/NC(=O)C(NC(=O)c2ccc3c(c2)OCO3)C(C)C)c2ccccc2n1C (stereo not drawn)

SMILES: CC(=O)c1sc(N/N=C\c2c(O)ccc3ccccc23)nc1C
EC50 [7]: 4.07 µM (active)
EC50 (Streptococcus): 7.49 µM (active)

SMILES: CN(C)c1ccc(/C=N/N=C(N)N)cc1[N+](=O)[O-]
EC50 [1]: 0.144 µM (active)
EC50 [2]: > 60 µM (not active)

SMILES: NC(=S)N/N=C/c1ccc(-c2cc(Cl)cc(Cl)c2)o1
EC50 [1]: 2.67 µM (active)
EC50 [2]: > 60 µM (not active)

SMILES: COc1cccc(/C=N/NC(=O)C(=O)N/N=C/c2cccc(OC)c2OC)c1OC
EC50 [3]: > 112 µM (not active)
EC50 [4]: > 112 µM (not active)

AC50 (Cytochrome P450 2D6): 14.1 µM (inconclusive)
SMILES: COc1cc(O)oc1/C=N/c1ccc(Cl)cc1

AC50 (Cytochrome P450 2D6): 15.8 µM (inconclusive)
SMILES: C[C@@H]1CN(CCCn2c3ccccc3c3ccccc32)C[C@H](C)N1 [RIMCAZOLE]
